Laboratory results published in PMC10828691 (Heliyon, 2024).
Like-named read-outs stand apart in the source and are kept apart here.

Assays:
[1] = system: tissue nonspecific alkaline phosphatase (TNAP); conditions: relative expression of control without drugs = 1.0
[2] = biological target: human placental alkaline phosphatase (hPAP) (Homo sapiens, UniProt P05187); test: Alkaline phosphatase inhibition assay; format: biochemical
Chain of human placental alkaline phosphatase (hPAP) (P05187 23-535): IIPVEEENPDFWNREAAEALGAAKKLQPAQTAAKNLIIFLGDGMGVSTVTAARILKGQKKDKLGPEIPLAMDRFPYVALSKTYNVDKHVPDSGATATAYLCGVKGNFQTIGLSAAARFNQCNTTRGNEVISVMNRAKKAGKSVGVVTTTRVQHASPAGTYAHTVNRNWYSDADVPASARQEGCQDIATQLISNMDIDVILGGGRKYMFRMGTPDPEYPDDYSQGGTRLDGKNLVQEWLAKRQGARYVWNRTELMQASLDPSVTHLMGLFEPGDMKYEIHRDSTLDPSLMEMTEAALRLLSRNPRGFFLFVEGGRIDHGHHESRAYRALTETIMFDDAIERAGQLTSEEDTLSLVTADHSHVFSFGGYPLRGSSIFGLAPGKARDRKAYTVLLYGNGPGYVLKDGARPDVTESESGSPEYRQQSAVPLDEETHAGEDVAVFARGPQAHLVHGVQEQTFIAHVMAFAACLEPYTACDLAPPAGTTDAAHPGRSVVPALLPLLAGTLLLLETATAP

Row | IC50 [2] | SMILES | TNAP Down-regulation ([1]; MCF-7, 10 μM) | TNAP Down-regulation ([1]; MCF-7, 5 μM)
1 | – | c1ccc([C@H]2CN3CCSC3=N2)cc1 [Levamisole] | 0.26 fold | –
2 | 17.5 ± 0.19 µM | CC(C)(O)c1ccccc1CC[C@@H](SCC1(CC(=O)O)CC1)c1cccc(/C=C/c2ccc3ccc(Cl)cc3n2)c1 [Montelukast, (R,E)-2-(1-(((1-(3-(2-(7-chloroquinolin-2-yl)vinyl)phenyl)-3-(2-(2-hydroxypropan-2-yl)phenyl)propyl)thio)methyl)cyclopropyl) acetic acid] | – | 0.27 fold
